The results in this text go back to ChEMBL document CHEMBL3817840, “Discovery of CNS Penetrant CXCR2 Antagonists for the Potential Treatment of CNS Demyelinating Disorders” (ACS Med Chem Lett, 2016).

Molecules are shown by their SMILES. The source made the active and inactive calls. No cut-off for these calls is given here. Bounds are passed on as bounds.

Data set [1] in a line: AUC (0 to 4 hrs) in C57BL/6 mouse blood at 3.4 mg/kg, po by UPLC/MS/MS analysis. The arrangement: time < 4 hr, dose 3.4 mg/kg, route oral. The class given is ADME, organism-based.
The target in data set [2] is T1, C-X-C chemokine receptor type 2 (Homo sapiens, UniProt P25025).
T1 sequence (P25025 whole entry): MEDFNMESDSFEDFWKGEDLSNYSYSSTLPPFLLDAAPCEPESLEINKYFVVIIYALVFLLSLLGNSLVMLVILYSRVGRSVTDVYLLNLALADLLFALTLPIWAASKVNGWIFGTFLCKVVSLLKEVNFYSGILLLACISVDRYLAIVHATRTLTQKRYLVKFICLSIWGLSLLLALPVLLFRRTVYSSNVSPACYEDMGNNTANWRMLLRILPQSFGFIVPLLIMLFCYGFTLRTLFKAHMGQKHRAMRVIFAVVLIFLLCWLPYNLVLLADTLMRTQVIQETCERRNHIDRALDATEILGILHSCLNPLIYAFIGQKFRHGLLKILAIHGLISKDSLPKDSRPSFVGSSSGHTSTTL
Briefly: Antagonist activity at human recombinant Gal4-VP16 fused-CXCR2 assessed as inhibition of CXCL1-mediated lactamase reporter gene expression after overnight incubation.

A short description of data set [3]: Ratio of drug level in C57BL/6 mouse brain to blood at 3.4 mg/kg, po. The class given is ADME, organism-based.
Data set [4] has as its system Brain. The data set is described as follows: AUC (0 to 4 hrs) in C57BL/6 mouse brain at 3.4 mg/kg, po by UPLC/MS/MS analysis. The class given is ADME, organism-based. The arrangement: dose 3.4 mg/kg, time < 4 hr, route oral. Particulars: in vivo.
A short description of data set [5]: Ratio of drug level in C57BL/6 mouse brain to blood at 1.9 mg/kg, po. The class given is ADME, organism-based.
Data set [6] deals with Brain. The data set is described as follows: AUC (0 to 4 hrs) in C57BL/6 mouse brain at 1.9 mg/kg, po by UPLC/MS/MS analysis. The class given is ADME, organism-based. The arrangement: dose 1.9 mg/kg, time < 4 hr, route oral. The following applies: in vivo.
Data set [7] can be described thus: AUC (0 to 4 hrs) in C57BL/6 mouse blood at 1.9 mg/kg, po by UPLC/MS/MS analysis. The class given is ADME, organism-based. The arrangement: dose 1.9 mg/kg, time < 4 hr, route oral.
Data set [8] in a line: Half life in C57BL/6 mouse at 1 mg/kg, iv. The following applies: in vivo. The class given is ADME, organism-based.
A short description of data set [9]: Fraction unbound in human plasma. The class given is ADME, cell-free.
A short description of data set [10]: AUC (0 to 4 hrs) in C57BL/6 mouse blood at 2 mg/kg, ip by UPLC/MS/MS analysis. The class given is ADME, organism-based. The arrangement: dose 2 mg/kg, time < 4 hr, route intraperitoneal. Particulars: C57BL/6, mouse, blood.
Data set [11] deals with Mus musculus. The data set is described as follows: Dose normalized AUC (0 to infinity) in C57BL/6 mouse at 2 mg/kg, po. The class given is ADME, organism-based. The following applies: in vivo.
The nature of data set [12]: Oral bioavailability in C57BL/6 mouse at 2 mg/kg. The class given is ADME, organism-based. The following applies: in vivo.
In data set [13] the test system is Mus musculus. The data set is described as follows: Induction of remyelination in corpus callosum in cuprizone-induced C57BL/6 mouse demyelination model at 100 mg/kg, po bid for 9 consecutive days by black-gold myelin staining based microscopy. The class given is functional, organism-based.
Data set [14] is described as follows: Clearance in C57BL/6 mouse blood at 1 mg/kg, iv. The class given is ADME, organism-based.
A short description of data set [15]: Cmax in C57BL/6 mouse at 2 mg/kg, po. The class given is ADME, organism-based. The arrangement: dose 2 mg/kg, route oral. Particulars: in vivo.
Data set [16] is described as follows: Volume of distribution at steady state in C57BL/6 mouse at 1 mg/kg, iv. The class given is ADME, organism-based. Particulars: in vivo, read-out: Vdss.
Data set [17] is described as follows: Stability of the compound assessed as GSH conjugate formation. The class given is physicochemical.
Data set [18] deals with Brain. The data set is described as follows: AUC (0 to 4 hrs) in C57BL/6 mouse brain at 2 mg/kg, ip by UPLC/MS/MS analysis. The class given is ADME, organism-based. The arrangement: dose 2 mg/kg, time < 4 hr, route intraperitoneal. Particulars: in vivo.
The next data set has as its target Cytochrome P450 2C19 (Homo sapiens, UniProt P33261). Briefly: Inhibition of CYP2C19 (unknown origin). The class given is ADME.
The target of the next data set is T2, Cytochrome P450 1A2 (Homo sapiens, UniProt P05177).
T2 sequence (P05177 whole entry): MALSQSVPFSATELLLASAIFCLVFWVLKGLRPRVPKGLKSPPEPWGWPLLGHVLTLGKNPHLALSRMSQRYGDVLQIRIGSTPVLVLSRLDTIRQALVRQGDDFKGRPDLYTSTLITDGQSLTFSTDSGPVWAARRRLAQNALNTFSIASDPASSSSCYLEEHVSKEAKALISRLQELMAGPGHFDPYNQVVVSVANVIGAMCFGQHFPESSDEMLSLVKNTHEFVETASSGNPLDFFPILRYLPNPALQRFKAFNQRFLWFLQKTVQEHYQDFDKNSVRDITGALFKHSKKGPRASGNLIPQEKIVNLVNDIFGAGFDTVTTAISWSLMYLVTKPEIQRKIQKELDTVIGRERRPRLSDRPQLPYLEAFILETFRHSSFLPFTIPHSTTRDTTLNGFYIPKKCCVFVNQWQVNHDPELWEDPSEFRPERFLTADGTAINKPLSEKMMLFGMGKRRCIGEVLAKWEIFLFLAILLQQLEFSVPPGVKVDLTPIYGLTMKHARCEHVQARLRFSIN
The data set is described as follows: Inhibition of CYP1A2 (unknown origin). The class given is ADME.

Data set [19] addresses Voltage-gated inwardly rectifying potassium channel KCNH2 (Homo sapiens, UniProt Q12809). The data set is described as follows: Binding affinity to human ERG.
A further data set deals with Cytochrome P450 3A4 (Homo sapiens, UniProt P08684). The data set is described as follows: Inhibition of CYP3A4 (unknown origin). The class given is ADME.
Chain of Cytochrome P450 3A4 (P08684 whole entry): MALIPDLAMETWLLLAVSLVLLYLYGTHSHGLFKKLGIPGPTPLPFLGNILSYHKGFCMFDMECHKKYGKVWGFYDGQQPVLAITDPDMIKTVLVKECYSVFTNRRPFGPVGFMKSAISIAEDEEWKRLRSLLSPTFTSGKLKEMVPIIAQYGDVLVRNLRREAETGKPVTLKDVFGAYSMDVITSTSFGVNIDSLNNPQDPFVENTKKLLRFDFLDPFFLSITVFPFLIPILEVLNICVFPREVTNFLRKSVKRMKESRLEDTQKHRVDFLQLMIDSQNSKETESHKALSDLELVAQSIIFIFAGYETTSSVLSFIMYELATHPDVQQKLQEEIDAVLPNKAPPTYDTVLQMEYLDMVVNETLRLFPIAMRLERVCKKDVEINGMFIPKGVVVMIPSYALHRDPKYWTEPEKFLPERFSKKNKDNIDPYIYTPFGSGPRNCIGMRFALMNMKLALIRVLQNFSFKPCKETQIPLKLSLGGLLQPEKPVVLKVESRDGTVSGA

Chain of Voltage-gated inwardly rectifying potassium channel KCNH2 (Q12809 whole entry): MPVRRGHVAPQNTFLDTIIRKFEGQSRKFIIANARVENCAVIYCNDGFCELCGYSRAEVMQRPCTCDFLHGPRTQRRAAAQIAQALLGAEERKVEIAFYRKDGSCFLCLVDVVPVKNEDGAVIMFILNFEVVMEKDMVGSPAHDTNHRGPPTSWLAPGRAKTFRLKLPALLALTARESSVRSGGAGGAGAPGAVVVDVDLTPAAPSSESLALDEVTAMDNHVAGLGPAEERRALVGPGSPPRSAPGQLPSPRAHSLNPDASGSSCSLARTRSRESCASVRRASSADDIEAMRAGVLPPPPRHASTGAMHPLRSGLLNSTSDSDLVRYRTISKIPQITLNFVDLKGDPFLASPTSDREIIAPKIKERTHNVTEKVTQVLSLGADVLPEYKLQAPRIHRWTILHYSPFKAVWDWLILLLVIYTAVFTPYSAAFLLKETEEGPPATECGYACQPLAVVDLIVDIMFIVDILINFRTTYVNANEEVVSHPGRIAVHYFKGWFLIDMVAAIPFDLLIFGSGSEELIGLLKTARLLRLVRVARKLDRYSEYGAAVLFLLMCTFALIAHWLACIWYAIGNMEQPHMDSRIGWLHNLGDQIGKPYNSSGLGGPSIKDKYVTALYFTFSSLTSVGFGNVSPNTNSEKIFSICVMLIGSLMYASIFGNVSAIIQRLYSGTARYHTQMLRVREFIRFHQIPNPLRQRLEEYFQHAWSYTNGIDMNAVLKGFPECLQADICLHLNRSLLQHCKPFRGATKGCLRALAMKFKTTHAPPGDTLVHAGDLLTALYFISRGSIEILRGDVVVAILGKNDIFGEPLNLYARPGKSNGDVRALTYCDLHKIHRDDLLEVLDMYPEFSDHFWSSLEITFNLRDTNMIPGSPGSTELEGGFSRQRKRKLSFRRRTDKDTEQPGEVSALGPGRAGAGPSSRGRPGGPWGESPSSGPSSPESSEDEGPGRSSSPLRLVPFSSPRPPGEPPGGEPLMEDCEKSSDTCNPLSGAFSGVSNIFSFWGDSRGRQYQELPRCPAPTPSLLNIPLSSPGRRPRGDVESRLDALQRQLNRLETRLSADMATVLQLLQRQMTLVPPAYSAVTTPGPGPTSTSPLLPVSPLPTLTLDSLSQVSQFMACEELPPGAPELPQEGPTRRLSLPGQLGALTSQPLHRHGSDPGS
Chain of Cytochrome P450 2C19 (P33261 whole entry): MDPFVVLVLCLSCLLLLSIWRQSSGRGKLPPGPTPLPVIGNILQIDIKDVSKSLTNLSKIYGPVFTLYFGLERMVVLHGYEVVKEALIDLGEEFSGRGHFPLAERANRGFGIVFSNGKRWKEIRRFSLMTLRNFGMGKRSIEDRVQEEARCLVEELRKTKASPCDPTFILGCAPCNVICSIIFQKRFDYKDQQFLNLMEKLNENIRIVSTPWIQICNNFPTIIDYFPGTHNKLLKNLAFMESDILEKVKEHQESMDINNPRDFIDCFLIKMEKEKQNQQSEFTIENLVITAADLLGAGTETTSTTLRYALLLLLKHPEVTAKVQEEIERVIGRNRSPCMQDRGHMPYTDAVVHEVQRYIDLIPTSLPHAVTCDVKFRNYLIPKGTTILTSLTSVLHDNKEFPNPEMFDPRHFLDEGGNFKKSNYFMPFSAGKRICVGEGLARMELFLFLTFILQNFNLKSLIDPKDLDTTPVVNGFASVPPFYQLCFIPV

In turn, `O=C(Nc1ccc(Cl)c(S(=O)(=O)N2CCNCC2)c1O)Nc1cccc(Cl)c1Cl` showed an AUC(0-t) at 4 h in [1] of 855 ng·h/mL. The IC50 in data set [2] was 0.631 nM. In addition, the Kp in data set [3] was 0.17. This compound returned an AUC in the data set with Brain [4] of 143 ng·h/g.

Turning to `NS(=O)(=O)c1c(Cl)ccc(NC(=O)Nc2cccc(Cl)c2Cl)c1O`, the Kp in data set [5] came out at 0.14. This compound also registered an AUC in the data set with Brain [6] of 49 ng·h/g. Besides, the IC50 in [2] was 2 nM. This compound also displayed an AUC(0-t) at 4 h in data set [7] of 352 ng·h/mL.

In data set [8], `CN1CCC(S(=O)(=O)c2c(Cl)ccc(NC(=O)Nc3cccc(F)c3Cl)c2O)CC1` had a half-life of 2.8 h. This compound returned a Fu in [9] of 0.13%. In [10], this compound had an exposure AUC(0-t) at 4 h of 735 ng·h/mL. This compound yielded an AUC/dose in the data set with Mus musculus [11] of 354 ng·h/mL/mg/kg. The same compound displayed a bioavailability in data set [12] of 41%. Besides, the outcome in the data set on Mus musculus [13] was Active. In [14], the clearance worked out at 16.9 mL/min/kg. Moreover, the concentration in data set [15] peaked (Cmax) at 157 ng/mL. The Vd in [16] amounted to 3.17 L/kg. Besides, the IC50 in data set [2] was 0.501 nM. For the same compound, the Stability entry in data set [17] is “Stable”. In the data set with Brain [18], this compound had an AUC of 335 ng·h/g.

For `CN1CCC(S(=O)(=O)c2c(Cl)ccc(NC(=O)Nc3cccc(Cl)c3Cl)c2O)CC1`, the half-life in data set [8] was 2 h. Besides, the Fu in data set [9] was determined as 0.1%. For the same compound, the AUC(0-t) at 4 h in data set [10] came out at 600 ng·h/mL. In addition, the AUC/dose in the data set with Mus musculus [11] is 299 ng·h/mL/mg/kg. The compound further had a bioavailability in data set [12] of 30%. The compound also came in with a clearance in data set [14] of 15.6 mL/min/kg. In addition, the Cmax in data set [15] was determined as 132 ng/mL. The Vd in data set [16] came out at 2.12 L/kg. In addition, the IC50 in [2] is 1.58 nM; at Cytochrome P450 2C19, more than 10000 nM; at Cytochrome P450 1A2 it was more than 10000 nM; in data set [19] it was more than 79400 nM; against Cytochrome P450 3A4 it was more than 10000 nM. Besides, the Stability result in data set [17] was “Stable”. The same compound registered an AUC in the data set on Brain [18] of 358 ng·h/g.
